From ChEMBL document CHEMBL5506010, “Butyrylcholinesterase-Activated Near-Infrared Fluorogenic Probe for In Vivo Theranostics of Alzheimer's Disease” (J Med Chem, 2024) come the findings set out here.

As a reminder, the IC50 is the concentration that gives 50% inhibition.

Active and inactive are the calls of the source. No cut-off for these calls is given here.

Data set [1] is described as follows: Neurotoxicity in mouse HT-22 cells assessed as reduction in cell viability at 50 uM. It is filed as toxicity, cell-based. The following applies: ht-22, 50 µM.
Data set [2] concerns the target T1, Acetylcholinesterase (Homo sapiens, UniProt P22303). Kind of data set: Stability of compound assessed as human serum AChE-mediated compound hydrolysis by fluorescence based analysis. It is filed as ADME.
In data set [3] the target is Cholinesterase (Equus caballus, UniProt P81908). Kind of data set: Stability of compound assessed as horse serum BChE-mediated compound hydrolysis by fluorescence based analysis. The class given is ADME.
Data set [4] relates to PC-12. Kind of data set: Binding affinity to BChE in rat PC-12 cells at 10 uM incubated for 1 hrs by fluorescence based confocal laser scanning microscopic analysis. The class given is cell-based.
The subject of data set [5] is Mus musculus. Kind of data set: Antialzheimer activity in APP/PS1 transgenic AD mouse model assessed as increase in ACh level administered intravenously once every 2 days for 10 times and measured on day 30 by ELISA. The class given is functional, organism-based. The note with it: route iv, time 30.0 day.
Data set [6] deals with Mus musculus. Kind of data set: Antialzheimer activity in APP/PS1 transgenic AD mouse model assessed as improvement in memory administered intravenously once every 2 days for 10 times followed by morris water maze training from day 21 to 25 and measured on day 26 by Morris water maze test. The class given is functional, organism-based. The note with it: route iv, time 26.0 day.

A short description of data set [7]: Toxicity in APP/PS1 transgenic AD mouse model assessed as effect on body weight administered intravenously once every 2 days for 10 times and measured on day 30. The following applies: in vivo, iv, 720 h, time 30 day.
The test system of data set [8] is Mus musculus. Kind of data set: Antialzheimer activity in APP/PS1 transgenic AD mouse model assessed as improvement in NC scores administered intravenously once every 2 days for 10 times and measured on day 27 by Nest construction test. It is filed as functional, organism-based. The following applies: route iv, time 27.0 day.
The target in data set [9] is T2, Cholinesterase (Homo sapiens, UniProt P06276). Kind of data set: Binding affinity to BChE (unknown origin) assessed as enzyme mediated compound hydrolysis measured after 1 min by HPLC analysis relative to control. Set-up: scale not given: the % may be the effect or the level left.
Data set [10] deals with SH-SY5Y. Kind of data set: Neuroprotective activity against amyloid-beta (1 to 42)-induced human SH-SY5Y cells assessed as increase in ACh level in culture medium at 10 to 20 uM incubated for 24 hrs by ELISA. It is filed as functional, cell-based. The note with it: dose 10-20 µM.
A short description of data set [11]: Drug uptake in HEK293T cells transfected with BChE siRNA assessed as increase in fluorescence intensity by fluorescence based confocal laser scanning microscopic analysis. The following applies: human, hek-293t. It is filed as ADME, cell-based.
Data set [12] is described as follows: Stability of compound at pH 12 measured within 3 mins by microplate reader analysis. It is filed as physicochemical. The note with it: buffer, pH 12, 0.05 h.
Data set [13] addresses T2, Cholinesterase. Kind of data set: Binding affinity to BChE (unknown origin) in PBS assessed as maximum emission wavelength at 710 nm by fluorescence spectra analysis.
The target in data set [14] is T2, Cholinesterase. Kind of data set: Binding affinity to BChE (unknown origin) in PBS assessed as […] at 680 nm by UV/vis absorption analysis.
For data set [15], the target named is T2, Cholinesterase. Kind of data set: Binding affinity to BChE in human SH-SY5Y cells at 10 uM incubated for 1 hrs by fluorescence based confocal laser scanning microscopic analysis. It is filed as cell-based.
The target in data set [16] is T2, Cholinesterase. Kind of data set: Binding affinity to BChE (unknown origin) in PBS assessed as Michaelis-menten constant by fluorometric method.
The nature of data set [17]: Stability of compound in male ICR mouse brain at 100 uM, iv measured within 5 mins by fluorescence microplate reader. It is filed as ADME, organism-based.
For data set [18], the target named is T2, Cholinesterase. Kind of data set: Binding affinity to BChE (unknown origin) in PBS assessed as fold change in fluorescence intensity at 710 nm by fluorescence spectra analysis.
For data set [19], the target named is T2, Cholinesterase. Kind of data set: Binding affinity to BChE (unknown origin) assessed as enzyme mediated compound hydrolysis measured after 5 min by HPLC analysis relative to control. Also noted: scale not given: the % may be the effect or the level left.
A short description of data set [20]: Selectivity ratio of fluorescence intensity for binding affinity to AChE (unknown origin) in PBS to fluorescence intensity for binding affinity to BChE (unknown origin) in PBS.
The nature of data set [21]: Stability of compound in male ICR mouse brain at 100 uM, iv measured after 30 to 1440 mins by fluorescence microplate reader. It is filed as ADME, organism-based. The following applies: time 30-1440 min.
Data set [22] has as its system SH-SY5Y. Kind of data set: Neuroprotective activity against amyloid-beta (1 to 42)-induced human SH-SY5Y cells assessed as decrease in amyloid beta (1 to 42) level in cell lysate at 10 to 20 uM incubated for 24 hrs by ELISA. The class given is functional, cell-based. The note with it: dose 10-20 µM.
Data set [23] deals with T2, Cholinesterase. Kind of data set: Binding affinity to BChE (unknown origin) in PBS assessed as maximum initial reaction rate by fluorometric method.
A short description of data set [24]: Drug accumulation in brain of APP/PS1 transgenic AD-mouse model at 100 uM, iv measured at 5 to 60 mins by fluorescence imaging analysis. The following applies: in vivo, time 5-60 min. The class given is ADME, organism-based.
For data set [25], the system named is Mus musculus. Kind of data set: Antialzheimer activity in APP/PS1 transgenic AD mouse model assessed as improvement in learning administered intravenously once every 2 days for 10 times and measured on day 26 by Y maze test. The class given is functional, organism-based. The note with it: route iv, time 26.0 day.
Data set [26] deals with T2, Cholinesterase. Kind of data set: Binding affinity to BChE in human LN-229 cells at 10 uM incubated for 1 hrs by fluorescence based confocal laser scanning microscopic analysis. It is filed as cell-based.
The target in data set [27] is Cholinesterase (Mus musculus) (UniProt Q03311). Kind of data set: Binding affinity to BChE in mouse HT-22 cells at 10 uM incubated for 1 hrs by fluorescence based confocal laser scanning microscopic analysis. The class given is cell-based.
Data set [28] has as its system SH-SY5Y. Kind of data set: Neuroprotective activity against amyloid-beta (1 to 42)-induced human SH-SY5Y cells assessed as decrease in amyloid beta (1 to 42) level in culture medium at 10 to 20 uM incubated for 24 hrs by ELISA. The note with it: dose 10-20 µM. It is filed as functional, cell-based. (In general: ELISA stands for enzyme-linked immunosorbent assay.)

The target of data set [29] is T2, Cholinesterase. Kind of data set: Binding affinity to BChE (unknown origin) in PBS assessed as cyan coloured appearance of compound by UV/vis absorption analysis.
For data set [30], the system named is PC-12. Kind of data set: Binding affinity to BChE in rat PC-12 cells assessed as increase in fluorescence intensity incubated for 1 hrs by fluorescence based confocal laser scanning microscopic analysis. It is filed as cell-based. The note with it: dose 1-10 µM.
Data set [31] is described as follows: Drug accumulation in brain of APP/PS1 transgenic AD-mouse model at 100 uM, iv measured after 24 hrs […] by fluorescence imaging analysis. The class given is ADME, organism-based. The following applies: in vivo.
Data set [32] has as its system SH-SY5Y. Kind of data set: Neuroprotective activity against amyloid-beta (1 to 42)-induced human SH-SY5Y cells assessed as increase in ACh level in cell lysate at 10 to 20 uM incubated for 24 hrs by ELISA. The class given is functional, cell-based. The following applies: dose 10-20 µM.
Data set [33] relates to SH-SY5Y. Kind of data set: Neuroprotective activity against amyloid-beta (1 to 42)-induced cell death in human SH-SY5Y cells assessed as increase in cell survival at 10 to 50 uM preincubated with compound for 2 hrs followed by amyloid beta (1 to 42) addition and measured after 24 hrs by MTT assay. It is filed as functional, cell-based. The following applies: dose 10-50 µM, time 26.0 hrs. For orientation: Formazan colour is commonly taken as a measure of viable cells.

For data set [34], the system named is Mus musculus. Kind of data set: Antialzheimer activity in APP/PS1 transgenic AD mouse model assessed as decrease in amyloid beta (1 to 42) level administered intravenously once every 2 days for 10 times and measured on day 30 by ELISA. The class given is functional, organism-based. The following applies: route iv, time 30.0 day.
The nature of data set [35]: Stability of compound in male ICR mouse plasma at 100 uM, iv measured after 30 mins by fluorescence microplate reader. The class given is ADME, organism-based. The following applies: 0.5 h.
Data set [36] can be described thus: Permeability of compound incubated for 18 hrs by PAMPA-BBB based UV plate spectroscopic reader analysis. It is filed as ADME. The note with it: read-out: permeability. A general note: The PAMPA barrier holds no transporters, so it reflects passive diffusion.
Data set [37] deals with T2, Cholinesterase. Kind of data set: Binding affinity to BChE (unknown origin) in PBS assessed as red-shift in maximum absorption to 680 nm by UV/vis absorption analysis.
Data set [38] has as its target T2, Cholinesterase. Kind of data set: Inhibition of human BChE using butyrylthiocholineiodide as substrate preincubated for 5 mins followed by substrate addition and measured immediately by Ellmans method.
The target of data set [39] is T2, Cholinesterase. Kind of data set: Stability of compound assessed as BChE(unknown origin)-mediated compound hydrolysis at 10 uM by fluorescence based analysis. The class given is ADME.
For data set [40], the species on record is Homo sapiens. Kind of data set: Binding affinity to lysozyme (unknown origin) by fluorescence analysis.
The species named for data set [41] is Homo sapiens. Kind of data set: Binding affinity to carboxylesterase (unknown origin) by fluorescence analysis.
The test system of data set [42] is Mus musculus. Kind of data set: Antialzheimer activity in APP/PS1 transgenic AD mouse model assessed as improvement in learning administered intravenously once every 2 days for 10 times followed by morris water maze training from day 21 to 25 and measured on day 26 by Morris water maze test. The class given is functional, organism-based. The following applies: route iv, time 26.0 day.

Data set [43] relates to PC-12. Kind of data set: Binding affinity to BChE in rat PC-12 cells assessed as increase in fluorescence intensity at 10 uM incubated for 24 hrs by fluorescence based confocal laser scanning microscopic analysis. The class given is cell-based.
For data set [44], the target named is T1, Acetylcholinesterase. Kind of data set: Binding affinity to AChE (unknown origin) by fluorescence analysis.
The species entered for data set [45] is Homo sapiens. Kind of data set: Binding affinity to ALP (unknown origin) by fluorescence analysis.

T2 sequence (P06276 whole entry): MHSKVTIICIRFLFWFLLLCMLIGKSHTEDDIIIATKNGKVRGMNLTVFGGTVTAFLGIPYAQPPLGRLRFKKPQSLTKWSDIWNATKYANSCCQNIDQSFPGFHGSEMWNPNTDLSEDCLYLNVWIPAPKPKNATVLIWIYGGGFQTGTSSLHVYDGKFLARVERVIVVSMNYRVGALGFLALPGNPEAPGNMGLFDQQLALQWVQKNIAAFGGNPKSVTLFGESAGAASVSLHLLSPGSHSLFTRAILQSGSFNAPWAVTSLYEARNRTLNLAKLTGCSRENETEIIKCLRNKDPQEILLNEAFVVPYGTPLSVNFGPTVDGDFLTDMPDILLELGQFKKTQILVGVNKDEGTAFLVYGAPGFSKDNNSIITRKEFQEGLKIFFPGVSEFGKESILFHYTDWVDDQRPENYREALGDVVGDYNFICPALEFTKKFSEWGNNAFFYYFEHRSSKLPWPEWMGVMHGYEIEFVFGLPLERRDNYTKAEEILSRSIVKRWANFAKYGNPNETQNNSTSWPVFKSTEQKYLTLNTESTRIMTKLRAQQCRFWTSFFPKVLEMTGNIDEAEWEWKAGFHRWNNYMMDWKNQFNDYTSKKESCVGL
T1 sequence (P22303 whole entry): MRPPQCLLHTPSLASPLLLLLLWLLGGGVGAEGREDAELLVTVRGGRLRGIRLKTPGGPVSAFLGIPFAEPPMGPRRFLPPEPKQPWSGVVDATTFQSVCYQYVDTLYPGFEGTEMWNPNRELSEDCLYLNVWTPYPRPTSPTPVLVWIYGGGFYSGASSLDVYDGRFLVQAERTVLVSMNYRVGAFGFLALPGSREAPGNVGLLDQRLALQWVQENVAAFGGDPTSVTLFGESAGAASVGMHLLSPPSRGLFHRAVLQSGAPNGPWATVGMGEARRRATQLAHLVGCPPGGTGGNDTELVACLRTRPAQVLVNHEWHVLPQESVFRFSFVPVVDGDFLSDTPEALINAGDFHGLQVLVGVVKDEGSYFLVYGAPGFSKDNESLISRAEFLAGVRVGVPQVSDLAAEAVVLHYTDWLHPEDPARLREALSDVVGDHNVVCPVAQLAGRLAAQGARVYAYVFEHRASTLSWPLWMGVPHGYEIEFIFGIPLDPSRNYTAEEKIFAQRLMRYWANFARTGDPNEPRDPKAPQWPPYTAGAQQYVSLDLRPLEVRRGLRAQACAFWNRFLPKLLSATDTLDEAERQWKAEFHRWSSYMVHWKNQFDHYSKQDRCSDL
Cholinesterase (Mus musculus), sequence (Q03311 whole entry): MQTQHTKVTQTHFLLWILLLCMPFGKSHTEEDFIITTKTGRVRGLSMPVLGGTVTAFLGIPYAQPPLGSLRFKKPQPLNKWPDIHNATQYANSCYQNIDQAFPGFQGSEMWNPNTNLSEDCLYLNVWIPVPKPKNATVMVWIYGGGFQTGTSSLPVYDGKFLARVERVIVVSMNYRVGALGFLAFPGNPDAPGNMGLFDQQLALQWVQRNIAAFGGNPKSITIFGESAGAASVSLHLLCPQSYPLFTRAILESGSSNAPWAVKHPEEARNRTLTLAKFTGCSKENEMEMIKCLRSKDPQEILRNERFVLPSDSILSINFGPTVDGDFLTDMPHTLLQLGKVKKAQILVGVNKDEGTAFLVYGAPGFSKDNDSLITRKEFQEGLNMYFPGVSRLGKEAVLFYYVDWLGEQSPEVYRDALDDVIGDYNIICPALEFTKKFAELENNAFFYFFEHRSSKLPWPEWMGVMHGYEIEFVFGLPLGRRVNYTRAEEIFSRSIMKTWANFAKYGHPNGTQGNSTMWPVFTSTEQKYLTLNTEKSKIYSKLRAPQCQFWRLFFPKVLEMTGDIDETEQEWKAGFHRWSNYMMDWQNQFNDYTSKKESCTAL
Cholinesterase (Equus caballus, UniProt P81908), sequence (P81908 whole entry): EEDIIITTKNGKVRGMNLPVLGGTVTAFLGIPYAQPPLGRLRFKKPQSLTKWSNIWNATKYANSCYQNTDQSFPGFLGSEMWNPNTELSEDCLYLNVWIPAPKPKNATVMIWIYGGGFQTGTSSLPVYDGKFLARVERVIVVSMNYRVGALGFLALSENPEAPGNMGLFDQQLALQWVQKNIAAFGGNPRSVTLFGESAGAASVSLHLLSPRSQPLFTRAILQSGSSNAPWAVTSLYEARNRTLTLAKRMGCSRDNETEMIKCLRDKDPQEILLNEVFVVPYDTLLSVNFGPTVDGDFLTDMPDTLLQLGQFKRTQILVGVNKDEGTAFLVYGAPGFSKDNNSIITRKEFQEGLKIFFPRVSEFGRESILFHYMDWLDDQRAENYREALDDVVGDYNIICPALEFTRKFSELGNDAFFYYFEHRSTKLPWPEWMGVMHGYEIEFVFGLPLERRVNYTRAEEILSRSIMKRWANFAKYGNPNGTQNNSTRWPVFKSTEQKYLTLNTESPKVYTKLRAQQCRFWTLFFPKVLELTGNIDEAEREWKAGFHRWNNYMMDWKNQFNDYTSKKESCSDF

Turning to `Nc1c2c(nc3ccccc13)CCCC2` [TACRINE], in data set [1], the Activity result is listed as “Non-Toxic”.
`C#CCCC[N+]1=C(/C=C/C2=C3Oc4cc(OC(C)=O)ccc4C=C3CCC2)C(C)(C)c2ccccc21.[I-]`: the Stability result at Acetylcholinesterase [2] and on Cholinesterase [3] was “Unstable” throughout.
With `CCN(CC)Cc1ccccc1CNC(=O)c1cccc(NC(=O)c2ccc(F)cc2)c1`, the Activity result in data set [1] is recorded as “Non-Toxic”.
With `C#CCCC[N+]1=C(/C=C/C2=C3Oc4cc(OC(=O)C5CC5)ccc4C=C3CCC2)C(C)(C)c2ccccc21.[I-]`, the result (in the data set on PC-12 [4]; at Cholinesterase [13]; at Cholinesterase [14]; at Cholinesterase [15]; at Cholinesterase [26]; in data set [27]) was Active. In addition, the outcome on Cholinesterase [29], on Cholinesterase [37] and in the data set with PC-12 [43] was Active. Besides, the result in the data set with Mus musculus [5], in the data set with Mus musculus [6], in the data set on Mus musculus [8], in the data set with SH-SY5Y [10], in the data set with SH-SY5Y [22] and in the data set with Mus musculus [25] was inactive. Further, the result in the data set on SH-SY5Y [28], in the data set with SH-SY5Y [32], in the data set on SH-SY5Y [33], in the data set on Mus musculus [34], in the data set listed under Homo sapiens [40] and in the data set filed under Homo sapiens [41] was inactive. The result in the data set with Mus musculus [42], at Acetylcholinesterase [44] and in the data set listed under Homo sapiens [45] was inactive. Moreover, the Activity entry is “Non-Toxic” in data set [7]; 50% on Cholinesterase [9]; 9.07 µM on Cholinesterase [16]; more than 90% on Cholinesterase [19]; 2.08 µM/min on Cholinesterase [23]; “Toxic” in data set [1]. The Activity result with PC-12 [30] was “Dose-Dependent Effect”. Moreover, the Drug uptake entry in data set [11] is listed as “Not Active”; in [24], “Active”; in data set [31], “Not Active”. The Stability entry in data set [12] is “Unstable”; in data set [17], “Stable”; in data set [21], “Unstable”; in data set [35] it was “Stable”; at Cholinesterase [39], “Stable”. The fold change (FC) at Cholinesterase [18] worked out at 21. In addition, the Selectivity ratio in data set [20] was found to be 31.4. Moreover, in data set [36], the Papp at 18 h turned out to be 5.97 ×10⁻⁶ cm/s. At Cholinesterase [38], this compound came in with an IC50 of more than 100000 nM.
For `CCN(CC)Cc1ccccc1CNC(=O)c1cccc(NC(=O)c2cccc(C(=O)O)c2)c1`, half-maximal inhibition against Cholinesterase [38] (IC50) required 1.23 nM.
